Experimental data reported in patent US20070167631A1, “Novel herbicides” (priority 2003, published 2007).

Key:
Assay type in all cases: in vivo
Digitaria [1] = assay: Microscreen, post-emergence herbicidal action (Example B3); settings: 250 g/ha, evaluated after 9 or 13 days, scale of eleven ratings (10=total damage, 0=no action)
Experimental: (§1) Example B3 Microscreen, Post-Emergence Herbicidal Action Monocotyledonous and dicotyledonous test plants are sown in sterilised standard soil in seed trays each having 96 cells. After 8 to 9 days' cultivation under controlled conditions in a climatic chamber (cultivation at 17/23° C.; 13 hours' light; 50-60% humidity; after application at 19/24° C.), the plants are treated with an aqueous spray solution of 1000 mg/l of the active ingredient used ([…]; incl. 10% DMSO as solvent). The plants are grown on in the climatic chamber until the test is evaluated after 9 or 13 days. The test is evaluated in accordance with a scale of eleven ratings (10=total damage, 0=no action). Ratings of from 10 to 7 (especially from 10 to 8) indicate very good to good herbicidal action.

Stellaria [2] = assay: as above; settings: 250 g/ha, evaluated after 9 or 13 days, scale of eleven ratings (10=total damage, 0=no action)
Experimental: as §1

Amaranthus [3] = assay: as above; settings: 250 g/ha, evaluated after 9 or 13 days, scale of eleven ratings (10=total damage, 0=no action)
Experimental: (§2) Example B3 Microscreen, Post-Emergence Herbicidal Action Monocotyledonous and dicotyledonous test plants are sown in sterilised standard soil in seed trays each having 96 cells. […] The plants are grown on in the climatic chamber until the test is evaluated after 9 or 13 days. The test is evaluated in accordance with a scale of eleven ratings (10=total damage, 0=no action). Ratings of from 10 to 7 (especially from 10 to 8) indicate very good to good herbicidal action.

Nasturtium = assay: as above; settings: 250 g/ha, evaluated after 9 or 13 days, scale of eleven ratings (10=total damage, 0=no action)
Experimental: as §2

Solanum = assay: as above; settings: 250 g/ha, evaluated after 9 or 13 days, scale of eleven ratings (10=total damage, 0=no action)
Experimental: as §2

Abutilon = assay: Pre-emergence herbicidal action (Example B1); settings: 250 g/ha, after 4 weeks, rating scale 10=total damage, 0=no action
Experimental: (§3) Monocotyledonous and dicotyledonous test plants are sown in standard soil in pots or seed trays. Immediately after sowing, the test compounds, in the form of an aqueous suspension (prepared from a wettable powder (Example F3, b) according to WO 97/34485) or in the form of an emulsion (prepared from an emulsifiable concentrate (Example F1, c) according to WO 97/34485), are applied by spraying in a concentration of 250 g/ha. The test plants are then grown in a greenhouse under optimum conditions. After a test duration of 4 weeks, the test is evaluated in accordance with a scale of eleven ratings (10=total damage, 0=no action). Ratings of from 10 to 7 (especially from 10 to 8) indicate very good to good herbicidal action.

Amaranthus [4] = assay: Pre-emergence herbicidal action (Example B1); settings: 250 g/ha, after 4 weeks, rating scale 10=total damage, 0=no action
Experimental: as §3

Chenopodium [5] = assay: Pre-emergence herbicidal action (Example B1); settings: 250 g/ha, after 4 weeks, rating scale 10=total damage, 0=no action
Experimental: as §3

Digitaria [6] = assay: Pre-emergence herbicidal action (Example B1); settings: 250 g/ha, after 4 weeks, rating scale 10=total damage, 0=no action
Experimental: as §3

Echinochloa [7] = assay: Pre-emergence herbicidal action (Example B1); settings: 250 g/ha, after 4 weeks, rating scale 10=total damage, 0=no action
Experimental: as §3

Panicum [8] = assay: Pre-emergence herbicidal action (Example B1); settings: 250 g/ha, after 4 weeks, rating scale 10=total damage, 0=no action
Experimental: as §3

Amaranthus [9] = assay: Post-emergence herbicidal action (Example B2); settings: 250 g/ha, after about 18 days, rating scale 10=total damage, 0=no action
Excerpt: (§4) Monocotyledonous and dicotyledonous test plants are cultivated in a greenhouse in standard soil in plastic pots and, at the 4- to 6-leaf stage, are sprayed with an aqueous suspension of the test compounds of formula I prepared from a 25% wettable powder (Example F3, b) according to WO 97/34485) or with an emulsion of the test compounds of formula I prepared from a 25% emulsifiable concentrate (Example F1, c) according to WO 97/34485), corresponding to concentrations of 125 and 250 g of active ingredient per hectare (500 litres of water per ha). The test plants are then grown on in the greenhouse under optimum conditions. After a test duration of about 18 days, the test is evaluated in accordance with a scale of eleven ratings (10=total damage, 0=no action). Ratings of from 10 to 7 (especially from 10 to 8) indicate very good to good herbicidal action.

Chenopodium [10] = assay: Post-emergence herbicidal action (Example B2); settings: 250 g/ha, after about 18 days, rating scale 10=total damage, 0=no action
Excerpt: as §4

Echinochloa [11] = assay: Post-emergence herbicidal action (Example B2); settings: 250 g/ha, after about 18 days, rating scale 10=total damage, 0=no action
Excerpt: as §4

Euphorbia = assay: Post-emergence herbicidal action (Example B2); settings: 250 g/ha, after about 18 days, rating scale 10=total damage, 0=no action
Excerpt: as §4

Panicum [12] = assay: Post-emergence herbicidal action (Example B2); settings: 250 g/ha, after about 18 days, rating scale 10=total damage, 0=no action
Excerpt: as §4

Stellaria [13] = assay: Post-emergence herbicidal action (Example B2); settings: 250 g/ha, after about 18 days, rating scale 10=total damage, 0=no action
Excerpt: as §4

Xanthium = assay: Post-emergence herbicidal action (Example B2); settings: 250 g/ha, after about 18 days, rating scale 10=total damage, 0=no action
Excerpt: as §4

| SMILES | Digitaria, herbicidal action rating (Digitaria [1]) | Stellaria, herbicidal action rating (Stellaria [2]) | Amaranthus, herbicidal action rating (Amaranthus [3]) | Nasturtium, herbicidal action rating (Nasturtium) | Solanum, herbicidal action rating (Solanum) | other results |
| --- | --- | --- | --- | --- | --- | --- |
| CC1CN(c2nc(C(=O)C3=C(O)C(C)(C)C(=O)C(C)(C)C3=O)ccc2C(F)(F)F)CC(C)O1 (stereo not drawn) [Compound 2.075] | 7 | 9 | 6 | 10 | 10 |  |
| Cc1cc(-c2nc(C(=O)C3=C(O)C(C)(C)C(=O)C(C)(C)C3=O)ccc2C(F)(F)F)on1 [Compound 2.202] | 6 | 10 | 6 | 10 | 10 |  |
| COCCNc1nc(C(=O)C2=C(O)C(C)(C)C(=O)C(C)(C)C2=O)ccc1C(F)(F)F [Compound 2.064] | 9 | 10 | 8 | 10 | 10 |  |
| CC(C)=NOCCOc1nc(C(=O)C2=C(O)C(C)(C)C(=O)C(C)(C)C2=O)ccc1C(F)(F)F [Compound 2.010] | 3 | 8 | 8 | 9 | 9 |  |
| O=C1CCCC(O)=C1C(=O)c1ccc(C(F)(F)F)c(-c2ccc(C(F)(F)F)cc2)n1 [Compound 1.209] | 8 | 9 | 9 | 9 | 9 |  |
| CCC(=O)N(C)c1nc(C(=O)C2=C(O)C(C)(C)C(=O)C(C)(C)C2=O)ccc1C(F)(F)F [Compound 2.089] |  |  |  |  |  | Pre-emergence action: Abutilon (Abutilon): 9; Pre-emergence action: Amaranthus (Amaranthus [4]): 8; Pre-emergence action: Chenopodium (Chenopodium [5]): 0; Pre-emergence action: Digitaria (Digitaria [6]): 8; Pre-emergence action: Echinochloa (Echinochloa [7]): 8; Pre-emergence action: Panicum (Panicum [8]): 9; Post-emergence action: Amaranthus (Amaranthus [9]): 0; Post-emergence action: Chenopodium (Chenopodium [10]): 9; Post-emergence action: Echinochloa (Echinochloa [11]): 7; Post-emergence action: Euphorbia (Euphorbia): 8; Post-emergence action: Panicum (Panicum [12]): 8; Post-emergence action: Stellaria (Stellaria [13]): 8; Post-emergence action: Xanthium (Xanthium): 7 |
| O=C1CCCC(O)=C1C(=O)c1ccc(OCC(F)(F)F)c(N2CCOCC2)n1 [Compound 1.094] | 8 | 7 | 9 | 8 | 10 |  |
| O=C1CCCC(O)=C1C(=O)c1ccc(C(F)(F)F)c(-n2cncn2)n1 [Compound 1.082] | 3 | 10 | 6 | 10 | 9 |  |
| CCN(CC)c1nc(C(=O)C2=C(O)CCCC2=O)ccc1C(F)(F)F [Compound 1.060] | 4 | 7 | 8 | 9 | 8 |  |
| CN(C)c1nc(C(=O)C2=C(O)CCCC2=O)ccc1C(F)(F)F [Compound 1.059] | 7 | 9 | 7 | 9 | 9 |  |
| N#Cc1nc(C(=O)C2=C(O)CCCC2=O)ccc1C(F)(F)F [Compound 1.212] | 3 | 7 | 7 | 8 | 8 |  |
| Cc1cc(-c2nc(C(=O)C3=C(O)CCCC3=O)ccc2C(F)(F)F)on1 [Compound 1.204] | 8 | 10 | 10 | 10 | 10 |  |
| CCN(CC)c1nc(C(=O)C2=C(O)C(C)(C)C(=O)C(C)(C)C2=O)ccc1C(F)(F)F [Compound 2.060] | 9 | 10 | 9 | 10 | 10 |  |
| CN(C(=O)c1ccccc1)c1nc(C(=O)C2=C(O)CCCC2=O)ccc1C(F)(F)F [Compound 1.091] | 2 | 6 | 8 | 9 | 9 |  |
| Cc1nc(C(=O)C2=C(O)CCCC2=O)ccc1C(F)(F)F [Compound 1.211] | 5 | 8 | 8 | 10 | 8 |  |
| CN(C(=O)c1ccccc1)c1nc(C(=O)C2=C(O)C(C)(C)C(=O)C(C)(C)C2=O)ccc1C(F)(F)F [Compound 2.090] | 2 | 8 | 6 | 10 | 10 |  |
| O=C1CCCC(O)=C1C(=O)c1ccc(C(F)(F)F)c(-n2cccn2)n1 [Compound 1.080] | 5 | 9 | 7 | 10 | 9 |  |
